Results reported in EP0641797A1, “Cephem derivatives and antimicrobial agents containing the same” (KATAYAMA SEIYAKUSYO CO. Ltd., priority 1993, dated 1995).
Values after ≈ are worked out from the molar mass of the structure shown. Like-named read-outs stand apart in the source and are kept apart here.

Experiments:
Assay in all cases: MIC on standard strains, standard method of Japan Society of Chemotherapy
Format in all cases: cell-based
[1] = tested on: A. calcoaceticos T59
Procedure: (§1) Antimicrobial activity of the compounds of the present invention were measured using CTM (cefotiam) and FMOX (flomoxef) as control drugs in accordance with the standard method of Japan Society of Chemotherapy. Of the 25 standard strains used in this test, Staphylococcus aureus 167 and Staphylococcus aureus 195 belong to MRSA.
(§2) In these tables, drugs tested are shown by the corresponding examples in which they were synthesized.

[2] = tested on: A. faecalis ATCC 3750; details: Alcaligenes faecalis, ATCC3750, A. faecalis ATCC 3750; read-out: MIC
Procedure: as §1, §2

[3] = tested on: B. subtilis ATCC 6633
Procedure: as §1, §2

[4] = tested on: C. freundii ATCC 8090
Procedure: as §1, §2

[5] = tested on: E. cloacae ATCC 13407
Procedure: as §1, §2

[6] = tested on: E. cloacae Nek39
Procedure: as §1, §2

[7] = tested on: E. coli CSH2(RE45); details: Escherichia coli
Procedure: as §1, §2

[8] = tested on: E. coli CSH2(RK1); details: Escherichia coli
Procedure: as §1, §2

[9] = tested on: E. coli NHIJ JC-2; details: Escherichia coli, NHIJJC2
Procedure: as §1, §2

[10] = tested on: K. pneuminiae IFO 3317
Procedure: as §1, §2

[11] = tested on: K. pneuminiae No. 42
Procedure: as §1, §2

[12] = tested on: M. luteus ATCC 9341; details: Micrococcus luteus, ATCC9341
Procedure: as §1, §2

[13] = tested on: M. morganii IFO 3848; details: Morganella morganii, IFO3848
Procedure: as §1, §2

[14] = tested on: P. aeruginosa AKR17; details: Pseudomonas aeruginosa
Procedure: as §1, §2

[15] = tested on: P. aeruginosa NCTC 10490; details: Pseudomonas aeruginosa, NCTC10490, P. aeruginosa NCTC 10490; read-out: MIC
Procedure: as §1, §2

[16] = tested on: P. cepacia
Procedure: as §1, §2

[17] = tested on: P. mirabilis IFO 3849
Procedure: as §1, §2

[18] = tested on: P. vulugaris OX-19
Procedure: as §1, §2

[19] = tested on: S. aureus 167; details: Staphylococcus aureus; S. aureus 167 (MRSA)
Procedure: as §1, §2

[20] = tested on: S. aureus 195; details: Staphylococcus aureus; S. aureus 195 (MRSA)
Procedure: as §1, §2

[21] = tested on: S. aureus 209p JC-1; details: Staphylococcus aureus, 209P, read-out: MIC
Procedure: as §1, §2

[22] = tested on: S. aureus Smith; details: Staphylococcus aureus, read-out: MIC
Procedure: as §1, §2

[23] = tested on: S. epidemidis IAM 1296
Procedure: as §1, §2

[24] = tested on: S. marcescens IAM 1184; details: Serratia marcescens, IAM1184, S. marcescens IAM 1184; read-out: MIC
Procedure: as §1, §2

[25] = tested on: S. marcescens No. 16-2; details: Serratia marcescens, NO.162
Procedure: as §1, §2

[26] = Bacillus subtilis, ATCC6633, B. subtilis ATCC 6633, read-out: MIC
[27] = Citrobacter freundii, ATCC8090, C. freundii ATCC 8090, read-out: MIC
[28] = Enterobacter cloacae, ATCC13407, E. cloacae ATCC 13407, read-out: MIC
[29] = Enterobacter cloacae, NEK39, E. cloacae Nek39, read-out: MIC
[30] = Burkholderia cepacia, read-out: MIC
[31] = Proteus mirabilis, IFO3849, P. mirabilis IFO 3849, read-out: MIC

SMILES	MIC ([1]; read-out: MIC) [µg/mL]	MIC [2] [µg/mL]	MIC [3, 26] [µg/mL]	MIC [4, 27] [µg/mL]	MIC [5, 28] [µg/mL]	MIC [6, 29] [µg/mL]	MIC [7] [µg/mL]	MIC [8] [µg/mL]	MIC [9] [µg/mL]	MIC [10] [µg/mL]	MIC [11] [µg/mL]	MIC [12] [µg/mL]	MIC [13] [µg/mL]	MIC [14] [µg/mL]	MIC [15] [µg/mL]	MIC [16, 30] [µg/mL]	MIC [17, 31] [µg/mL]	MIC [18] [µg/mL]	MIC [19] [µg/mL]	MIC [20] [µg/mL]	further results
CO[C@@]1(NC(=O)CSC(F)F)C(=O)N2C(C(=O)O)=C(CSc3nnnn3CCO)CO[C@@H]21 [FMOX, flomoxef, reference compound]	> 100	0.1 (≈ 0.201 µM)	0.39 (≈ 0.786 µM)	0.39 (≈ 0.786 µM)	50 (≈ 101 µM)	> 100	0.1 (≈ 0.201 µM)	0.1 (≈ 0.201 µM)	0.1 (≈ 0.201 µM)	0.05 (≈ 0.101 µM)	0.1 (≈ 0.201 µM)	0.1 (≈ 0.201 µM)	0.39 (≈ 0.786 µM)	> 100	> 100	50 (≈ 101 µM)	0.39 (≈ 0.786 µM)	0.39 (≈ 0.786 µM)	50 (≈ 101 µM)	3.13 (≈ 6.3 µM)	MIC [1]: 100 µg/mL (≈ 201 µM); MIC ([3]; B. subtilis ATCC 6633): 0.2 µg/mL (≈ 0.403 µM); MIC ([4]; C. freundii ATCC 8090): 0.2 µg/mL (≈ 0.403 µM); MIC ([5]; E. cloacae ATCC 13407): 100 µg/mL (≈ 201 µM); MIC ([6]; E. cloacae Nek39): 100 µg/mL (≈ 201 µM); MIC [16]: 100 µg/mL (≈ 201 µM); MIC ([17]; P. mirabilis IFO 3849): 0.2 µg/mL (≈ 0.403 µM); MIC [21]: 0.39 µg/mL (≈ 0.786 µM); MIC [22]: 0.39 µg/mL (≈ 0.786 µM); MIC [23]: 0.2 µg/mL (≈ 0.403 µM); MIC [24]: 0.2 µg/mL (≈ 0.403 µM); MIC [25]: 100 µg/mL (≈ 201 µM)
Nc1nc(/C(=N/O)C(=O)N[C@@H]2C(=O)N3C(C(=O)[O-])=C(C[n+]4ccc(-c5ncno5)cc4)CS[C@H]23)cs1 [Ex. 8, 7β-[2-(2-aminothiazol-4-yl)-2-syn-hydroxyiminoacetamido]-3-[4-(1,2,4-oxadiazol-5-yl)pyridinio]methyl-3-cephem-4-carboxylate]	12.5 (≈ 23.7 µM)	0.78 (≈ 1.48 µM)	0.78 (≈ 1.48 µM)	0.2 (≈ 0.378 µM)	3.13 (≈ 5.92 µM)	50 (≈ 94.6 µM)	0.39 (≈ 0.738 µM)	1.56 (≈ 2.95 µM)	0.39 (≈ 0.738 µM)	0.2 (≈ 0.378 µM)	0.78 (≈ 1.48 µM)	0.05 (≈ 0.0946 µM)	0.05 (≈ 0.0946 µM)	> 100	1.56 (≈ 2.95 µM)	> 100	0.2 (≈ 0.378 µM)	0.2 (≈ 0.378 µM)	12.5 (≈ 23.7 µM)	3.13 (≈ 5.92 µM)	MIC [21]: 0.39 µg/mL (≈ 0.738 µM); MIC [22]: 0.39 µg/mL (≈ 0.738 µM); MIC [23]: 0.1 µg/mL (≈ 0.189 µM); MIC [24]: 0.39 µg/mL (≈ 0.738 µM); MIC [25]: 100 µg/mL (≈ 189 µM)
Nc1nc(-c2cc[n+](CC3=C(C(=O)[O-])N4C(=O)[C@@H](NC(=O)/C(=N\O)c5csc(N)n5)[C@H]4SC3)cc2)no1 [Ex. 13, 7β-[2-(2-aminothiazol-4-yl)-2-syn-hydroxyiminoacetamido]-3-[4-(5-amino-1,2,4-oxadiazol-3-yl)pyridinio]methyl-3-cephem-4-carboxylate]	12.5 (≈ 23 µM)	1.56 (≈ 2.87 µM)	0.2 (≈ 0.368 µM)	0.2 (≈ 0.368 µM)	3.13 (≈ 5.76 µM)	> 100	0.39 (≈ 0.718 µM)	0.39 (≈ 0.718 µM)	0.2 (≈ 0.368 µM)	0.2 (≈ 0.368 µM)	0.78 (≈ 1.44 µM)	0.025 (≈ 0.046 µM)	0.1 (≈ 0.184 µM)	> 100	1.56 (≈ 2.87 µM)	> 100	0.39 (≈ 0.718 µM)	0.2 (≈ 0.368 µM)	6.25 (≈ 11.5 µM)	3.13 (≈ 5.76 µM)	MIC [21]: 0.2 µg/mL (≈ 0.368 µM); MIC [22]: 0.39 µg/mL (≈ 0.718 µM); MIC [23]: 0.1 µg/mL (≈ 0.184 µM); MIC [24]: 0.39 µg/mL (≈ 0.718 µM); MIC [25]: 100 µg/mL (≈ 184 µM)
Nc1nc(-c2cc[n+](CC3=C(C(=O)[O-])N4C(=O)[C@@H](NC(=O)/C(=N\O)c5csc(N)n5)[C@H]4SC3)cc2)n[nH]1 [Ex. 16, 7β-[2-(2-aminothiazol-4-yl)-2-syn-hydroxyiminoacetamido]-3-[4-(3-aminotriazol-5-yl)pyridinio]methyl-3-cephem-4-carboxylate]	12.5 (≈ 23 µM)	1.56 (≈ 2.88 µM)	0.2 (≈ 0.369 µM)	0.2 (≈ 0.369 µM)	12.5 (≈ 23 µM)	> 100	0.2 (≈ 0.369 µM)	0.78 (≈ 1.44 µM)	0.1 (≈ 0.184 µM)	0.1 (≈ 0.184 µM)	0.39 (≈ 0.719 µM)	0.025 (≈ 0.0461 µM)	0.05 (≈ 0.0922 µM)	> 100	1.56 (≈ 2.88 µM)	> 100	0.2 (≈ 0.369 µM)	0.1 (≈ 0.184 µM)	3.13 (≈ 5.77 µM)	1.56 (≈ 2.88 µM)	MIC [21]: 0.2 µg/mL (≈ 0.369 µM); MIC [22]: 0.39 µg/mL (≈ 0.719 µM); MIC [23]: 0.1 µg/mL (≈ 0.184 µM); MIC [24]: 0.2 µg/mL (≈ 0.369 µM); MIC [25]: > 100 µg/mL
